Paper PMC11470957, “Principles of paralog-specific targeted protein degradation engaging the C-degron E3 KLHDC2” (Nature Communications, 2024)
Several values for one entry are separate records, joined by “and”; a condition that tells them apart may be missing. Identical values can stand only once.

Target: BRD4^BD2 (Homo sapiens, UniProt O60885)
Test: ITC, binary binding to BRD4^BD2
[1] = ITC, syringe BRD4BD2, cell compound, Rep1, Rep2
[2] = cell: SJ46421, syringe: BRD4^BD2

SMILES: Cc1sc2c(c1C)C(c1ccc(Cl)cc1)=N[C@@H](CC(=O)N1CCN(CCOc3cccc4ccc(-c5nc(CC(=O)NCC(=O)O)cs5)cc34)CC1)c1nnc(C)n1-2 [SJ46421]
- (-)TDS [1]: 1.81 and 1.64
- DH [1]: -9.89
- Kd (Kd, Rep1/Rep2, ITC source data Fig4a, syringe BRD4BD2, cell SJ46421): 1080 nM and 958 nM
- ITC -TΔS [2]: 1.73 +/- 0.14 kcal/mol-1
- ITC N [2]: 0.9
